# Patent US12539269B2, “Composition for blocking ultraviolet rays and fine dust, and preparation method thereof” (SANG HWANG MI-IN CO., LTD, priority 2020, dated 2026)
# Test system: HaCaT
# Assay: Hyaluronic acid production amount (ELISA kit) in BP-stimulated keratinocytes
# Assay type: cell-based
# Method: In order to confirm whether the extract of a black hoof mushroom, a shiitake mushroom, and an oyster mushroom increased the hyaluronic acid (HA) production amount in HaCaT which is a keratinocyte, measurement was performed with an ELISA kit, and the results are shown in Table 7. In Table 7, N (normal) is a BP (benzo[α]pyrene)-unstimulated group, and C (control) is a BP (benzo[α]pyrene)-stimulated group.
compound,measurement,setting,value
O=C(O[C@@H]1Cc2c(O)cc(O)cc2O[C@@H]1c1cc(O)c(O)c(O)c1)c1cc(O)c(O)c(O)c1 [EGCG],Increase of hyaluronic acid production versus control group (increase rate),"10 μg/mL, versus control C 99.3 ng/mL",6.3 ng/mL
same,Hyaluronic acid production amount,"BP (benzo[α]pyrene)-stimulated, EGCG 10 μg/mL, N 198, C 99.3",105.6 ng/mL
